Assay results: US20020142982A1, “Method for regulating angiogenesis” (priority 1999, published 2002)

System: EDG-1
Assay: Phosphorylation of endogenous EDG-1 in 32P-labeled HUVEC
Format: cell-based, human
Conditions: S1P 5-60 min
Description: (Upper panel) Normal HUVEC cells were labelled with [^32P]-orthophosphate, and stimulated with 100 nM S1P for indicated times. Cell extracts were immunoprecipitated with the affinity-purifed anti-EDG-1 IgY, separated on a SDS-PAGE and autoradiographed. (Middle panel) Some cells were treated with 10 μM LY294002 or 100 nM Wortmannin prior to stimulation with S1P and EDG-1 phosphorylation was examined as above. (Lower panel) Some cells were transduced with 100 MOI of wild-type (wt)-Akt, dominant negative (dn)-Akt or the β-gal virus for 12 h prior to stimulation with S1P. EDG-1 phosphorylation was examined as above.
To label the EDG-1 receptor in HUVEC and HEK293EDG-1 cells, they were pre-incubated in phosphate-free DMEM (GIBCO-BRL) for 2 hr. Subsequently, cells were labeled with [^32P] orthophosphate (80 μCl/ml) for 3 hr. To examine the effect of P1-3 kinase, cultures were treated with wortmannin (100 nM) or LY294002 (10 μM) during tine last hour of labeling. After SPP stimulation, ^32P-labeled EDG-1 receptor was immunoprecipitated with either chicken anti-EDG-1 1gY or anti-M2, resolved on SDS-PAGE, and visualized by autoradiography.
Chicken anti-human EDG-1 antibodies against human EDG-1 polypeptide expressed in E. coli were raised in Aves Labs, Tigard, Oreg. This antibody specifically detected EDG-1 polypeptide in HUVEC cells and transfected HEK293 cells. […]

**Q.** How did the “radiolabeling of the endogenous EDG-1 polypeptide” value turn out when CCCCCCCCCCCCC/C=C/[C@@H](O)[C@@H](N)COP(=O)(O)O [SPP, sphingosine-1-phosphate] was run?
**A.** The value was “increased”.
